In US12421222B2 (AUGUSTINE THERAPEUTICS, priority 2021, dated 2025):

System: acetylated tubulin (Lys40) in HeLa cells
Test: Acetylated α-tubulin measurement in vitro (immunocytochemistry)
Type: cell-based
Settings: Homo sapiens, 6 hours incubation, acetylated tubulin (Lys40) by immunocytochemistry, read-out: IC50 (Tubulin deacetylation)
How it was run: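 HeLa cells in serum-free medium treated 6 h at 37 °C (final DMSO 0.1–0.4%), then PFA-fixed and immunostained for acetyl-Lys40 and total α-tubulin; high-content imaging.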

IC50 | Compound
≤ 100 nM | CCOc1cc2c(SCC(=O)c3ccc(CNC(=O)CO)s3)nc(C)nc2cn1 [Example 145, N-((5-(2-((6-ethoxy-2-methylpyrido[3,4-d]pyrimidin-4-yl)thio)acetyl)thiophen-2-yl)methyl)-2-hydroxyacetamide]
100 to 500 nM | Cc1nc(SCC(=O)c2ccc(CNC(=O)CO)s2)c2c(F)c(Cl)ccc2n1 [Example 146, N-((5-(2-((6-chloro-5-fluoro-2-methylquinazolin-4-yl)thio)acetyl)thiophen-2-yl)methyl)-2-hydroxyacetamide]
≤ 100 nM | COc1cc(C(F)(F)F)cc2c(SCC(=O)c3ccc(CNC(=O)CO)s3)nc(C)nc12 [Example 148, 2-hydroxy-N-((5-(2-((8-methoxy-2-methyl-6-(trifluoromethyl)quinazolin-4-yl)thio)acetyl)thiophen-2-yl)methyl)acetamide]
≤ 100 nM | Cc1nc(SCC(=O)c2ccc(CNC(=O)CO)s2)c2cc(N(C)C)ncc2n1 [Example 149, N-((5-(2-((6-(dimethylamino)-2-methylpyrido[3,4-d]pyrimidin-4-yl)thio)acetyl)thiophen-2-yl)methyl)-2-hydroxyacetamide]
100 to 500 nM | Cc1nc(SCC(=O)c2ccc(CNC(=O)CO)s2)c2cc(C(F)(F)F)cc(N(C)C)c2n1 [Example 150, N-((5-(2-((8-(dimethylamino)-2-methyl-6-(trifluoromethyl)quinazolin-4-yl)thio)acetyl)thiophen-2-yl)methyl)-2-hydroxyacetamide]
1000 to 3330 nM | CNc1cc(C(F)(F)F)cc2c(SCC(=O)c3ccc(CNC(=O)CO)s3)nc(C)nc12 [Example 151, 2-hydroxy-N-((5-(2-((2-methyl-8-(methylamino)-6-(trifluoromethyl)quinazolin-4-yl)thio)acetyl)thiophen-2-yl)methyl)acetamide]
≤ 100 nM | O=C(CO)NCc1ccc(C(=O)CSc2nc(C(F)(F)F)nc3cccnc23)s1 [Example 152, 2-hydroxy-N-((5-(2-((2-(trifluoromethyl)pyrido[3,2-d]pyrimidin-4-yl)thio)acetyl)thiophen-2-yl)methyl)acetamide]
≤ 100 nM | Cc1nc(SCC(=O)c2ccc(CNC(=O)CO)s2)c2ncccc2n1 [Example 153, 2-hydroxy-N-((5-(2-((2-methylpyrido[3,2-d]pyrimidin-4-yl)thio)acetyl)thiophen-2-yl)methyl)acetamide]
≤ 100 nM | COc1cc2c(SCC(=O)c3ccc(CNC(=O)CO)s3)nc(C(F)(F)F)nc2cn1 [Example 154, 2-hydroxy-N-((5-(2-((6-methoxy-2-(trifluoromethyl)pyrido[3,4-d]pyrimidin-4-yl)thio)acetyl)thiophen-2-yl)methyl)acetamide]
≤ 100 nM | O=C(CSc1nc(C(F)(F)F)nc2ncccc12)c1ccc(CN2CCCC2=O)s1 [Example 157, 1-((5-(2-((2-(trifluoromethyl)pyrido[2,3-d]pyrimidin-4-yl)thio)acetyl)thiophen-2-yl)methyl)pyrrolidin-2-one]
100 to 500 nM | COc1ccc2nc(C)nc(SCC(=O)c3ccc(CNC(=O)CO)s3)c2c1F [Example 158, N-((5-(2-((5-fluoro-6-methoxy-2-methylquinazolin-4-yl)thio)acetyl)thiophen-2-yl)methyl)-2-hydroxyacetamide]
≤ 100 nM | COc1cc2c(SCC(=O)c3ccc(CN(C)C(=O)CO)s3)nc(C(F)(F)F)nc2cn1 [Example 159, 2-hydroxy-N-((5-(2-((6-methoxy-2-(trifluoromethyl)pyrido[3,4-d]pyrimidin-4-yl)thio)acetyl)thiophen-2-yl)methyl)-N-methylacetamide]
≤ 100 nM | CCOc1cnc2nc(C)nc(SCC(=O)c3ccc(CNC(=O)CO)s3)c2c1 [Example 160, N-((5-(2-((6-ethoxy-2-methylpyrido[2,3-d]pyrimidin-4-yl)thio)acetyl)thiophen-2-yl)methyl)-2-hydroxyacetamide]
100 to 500 nM | COc1cnc2nc(C)nc(SCC(=O)c3ccc(CN4CCOCC4=O)s3)c2c1 [Example 161, 4-((5-(2-((6-methoxy-2-methylpyrido[2,3-d]pyrimidin-4-yl)thio)acetyl)thiophen-2-yl)methyl)morpholin-3-one]
